Test results as given in patent US9440938B2, “Sulfonamide derivative having PGD2 receptor antagonistic activity” (SHIONOGI & CO., LTD., priority 2005, dated 2016).
Read-outs that look alike come from different tables or passages of the source.

Legend:
DP receptor [1] = biological target: T1, DP receptor (Homo sapiens, UniProt Q13258); assay: cAMP assay with washed platelet (DP inhibitory activity in vitro); format: cell-based; conditions: washed human platelets, 100 nM PGD2, cAMP by HTRF
T1 construct: endogenous in cells; host or cells: washed platelets from peripheral blood of a healthy volunteer
T1 sequence (Q13258 1-359): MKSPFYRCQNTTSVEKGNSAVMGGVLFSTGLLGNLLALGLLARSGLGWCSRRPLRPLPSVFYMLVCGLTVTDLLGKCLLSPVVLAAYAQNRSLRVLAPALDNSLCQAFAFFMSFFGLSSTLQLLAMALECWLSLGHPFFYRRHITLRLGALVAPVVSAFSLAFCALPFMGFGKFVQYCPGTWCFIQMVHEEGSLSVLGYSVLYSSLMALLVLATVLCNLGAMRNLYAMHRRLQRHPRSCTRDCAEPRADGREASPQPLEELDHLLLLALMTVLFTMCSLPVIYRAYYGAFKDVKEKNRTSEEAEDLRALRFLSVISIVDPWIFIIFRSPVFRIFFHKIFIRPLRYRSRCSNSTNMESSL
Protocol: 1) Preparation of Platelet and a Method of cAMP Assay
30 mL of peripheral blood was collected from a healthy volunteer using a syringe containing one ninth amount of 3.8% sodium citrate. After being centrifuged at 180 g for 10 minutes at room temperature, a supernatant was collected and used as Platelet Rich Plasma (PRP). The resulting PRP was washed with wash buffer and centrifuged three times (Washed Platelet: WP) and platelets were counted by a microcell counter. WP was added to a plate in amount of 1.5×10^8/assay and the plate was treated with 3-isobutyl-1-methylxanthin (IBMX; 0.5 mM) for 5 minutes. A reaction was initiated by adding 100 nM of PGD2 5 min after an addition of a test compound. The reaction was terminated with an addition of 1N hydrochloric acid after 2 minutes and the cells were destructed using 12% triton X-100. An amount of cAMP in the supernatant was assayed by Homogeneous Trangient Fluorescence (HTRF)

DP receptor [2] = biological target: T1, DP receptor; assay: Receptor binding assay, [3H]-PGD2, platelet membrane; conditions: [3H]-PGD2, human platelet membrane
Protocol: 2) Receptor Binding Assay
A prepared WP was homogenated and a membrane fraction was collected with high-speed centrifugation. A compound of the present invention or a reference compound A (No. IC-73 in WO 2003/097598) was added to the plate and [^3H]-PGD2 was also added. A platelet membrane, a protein concentration is 2 mg/mL, was added and mixed in the plate, and placed on ice for 2 hours. The reaction solution was transferred to a low protein-adsorptive filter and washed with a wash solution eight times using a cell harvester. After the final washing, water was removed sufficiently, and scintillator was added. DP inhibitory activity was investigated by measuring [^3H] by using Micro Beta.

OVA asthma model of rat = assay: Test using OVA asthma model of rat (airway hyperresponsiveness, infiltration of inflammatory cells, mucus-secretion); format: in vivo, Brown Norway (BN) Rats; conditions: po, 72 h
Protocol: Test Using OVA Asthma Model of Rat
Brown Norway (BN) Rats were sensitized by i.p. administration of 0.1 mg/mL of ovalbumin (OVA) and 1 mg of aluminum hydroxide gel. A solution of 1% OVA was aerosolized by ultrasonic nebulizer (NE-U17) and the rats were subjected to inhalation exposure of the aerosol for 30 minutes in an exposing chamber 12, 19, 26 and 33 days after the sensitization. One hour before the 4th exposure of the antigen, compounds of the present invention were administered in a dose of 10 mg/kg p.o. once a day for three days consecutively. In a control group, 0.5% of methyl cellulose was administered in place of the compound of the present invention.
Under pentobarbital anesthesia (80 mg/kg, i.p.), acetylcholine (3.9, 7.8, 15.6, 31.3, 62.5, 125, 250 and 500 μg/kg) was injected to jugular vein of the rats successively from a lower dose at intervals of 5 minutes three days after the fourth exposure to the antigen, and immediate contractile reaction of airways (an increase of insufflation pressure) was measured by a modified method of Konnzett & Ririssler. Inhibition rate of airway hyperresponsiveness against the control group was calculated based on area under the curve (AUC) obtained from concentration-response curve of acetylcholine.
After the measurement of increased hyperresponsive airway was completed, bronchoalveoli of the rats were washed with 5 mL of saline three times. Total cell number in the washings was counted by a hemacytometer under light microscope, and inhibition rates of infiltration of inflammatory cells against the control group were calculated. Further, mucin in the airway lavage fluid was measured by ELISA method using jacalin, a mucin-binding lectin, and the inhibition rates of mucus-secretion against the control group were calculated.

[3] = read-out: IC50 (50% DP-inhibitory concentration in the cAMP assay)
[4] = BN rats, 10 mg/kg p.o. once a day for three days, mucin in airway lavage fluid by ELISA against control group, read-out: inhibition rate (%) mucus-secretion
[5] = BN rats, 10 mg/kg p.o. once a day for three days, total cell number in bronchoalveolar washings against control group, read-out: inhibition rate (%) infiltration of inflammatory cells
[6] = read-out: inhibition rate (%) airway hyperresponsiveness

Row | Structure (SMILES) | IC50 (DP receptor [1]; [3]) [nM] | Ki (DP receptor [2]) [nM] | inhibition in vivo at 10 mg/kg (OVA asthma model of rat; [4]) [%] | inhibition in vivo at 10 mg/kg (OVA asthma model of rat; [5]) [%] | inhibition in vivo at 10 mg/kg (OVA asthma model of rat; [6]) [%] | IC50 (DP receptor [1]) [nM]
1 | CC(C)Oc1ccc(S(=O)(=O)N2CCN(c3cc(F)c(F)c(OCC(=O)O)c3)CC2)cc1 [II-16] | 250 | 870 | 76 | 67 | 131 | 
2 | CC(C)Oc1ccc(S(=O)(=O)N2CCN(c3ccc(Cl)c(OCC(=O)O)c3)CC2)cn1 [II-27] | 1000 | 1400 | 118 | 49 | 49 | 
3 | CC(C)Oc1ccc(S(=O)(=O)N2CCN(c3ccc(-c4cnco4)c(OCC(=O)O)c3)CC2)cc1 [II-84] |  | 330 | 56 | 54 | 82 | 180
4 | CC[C@@H](C)Oc1ccc(S(=O)(=O)N2CCN(c3ccc(Cl)c(OCC(=O)O)c3)CC2)cc1 [II-29] | 380 | 740 | 110 | 60 | 89 | 
5 | CC(C)Sc1ccc(S(=O)(=O)N2CCN(c3ccc(Cl)c(OCC(=O)O)c3)CC2)cc1 [II-35] | 470 | 3100 | 84 | 60 | 88 | 
6 | CC(C)Oc1ccc(S(=O)(=O)N2CCN(c3cc(OCC(=O)O)cc(-c4ccoc4)c3)CC2)cc1 [II-38] | 650 | 250 | 71 | 69 | 39 | 
7 | CC(C)Oc1ccc(S(=O)(=O)N2CCN(c3ccc(C#N)c(OCC(=O)O)c3)CC2)cc1 [II-80] | 200 | 230 | 82 | 57 | 39 | 
8 | CC(C)Oc1ccc(S(=O)(=O)N2CCN(c3cc(OCC(=O)O)cc(C(F)(F)F)c3)CC2)cc1 [II-19] | 1100 | 2000 | 59 | 51 | 54 | 
9 | CC(C)Oc1ccc(S(=O)(=O)N2CCN(c3ccc(-c4nccs4)c(OCC(=O)O)c3)CC2)cc1 [II-92] | 360 | 580 | 44 | 46 | 53 | 
10 | CC(C)Oc1ccc(S(=O)(=O)N2CCN(c3ccc(Cl)c(OCC(=O)O)c3)CC2C)cc1 (centres unmarked) [II-43] | 740 | 2300 | 98 | 33 | 56 | 
11 | CC(C)Oc1ccc(S(=O)(=O)N2CCN(c3ccc([N+](=O)[O-])c(OCC(=O)O)c3)CC2)cc1 [II-13] | 280 | 810 | 47 | 46 | 99 | 
12 | CC(C)Oc1ccc(S(=O)(=O)N2CCN(c3cc(Br)cc(OCC(=O)O)c3)CC2)cc1 [II-17] | 230 | 570 | 49 | 53 | 89 | 
13 | CC(C)Oc1ccc(S(=O)(=O)N2CCN(c3ccc(Br)c(OCC(=O)O)c3)CC2)cc1 [II-33] | 300 | 1900 | 76 | 57 | 72 | 
14 | CC(C)Oc1ccc(S(=O)(=O)N2CCN(c3ccc(-c4ccoc4)c(OCC(=O)O)c3)CC2)cc1 [II-54] |  | 270 | 106 | 39 | 119 | 420
15 | CC(C)Oc1ccc(S(=O)(=O)N2CCN(c3ccc(Cl)c(OCC(=O)O)c3)CC2)cc1F [II-31] | 810 | 3700 |  |  |  | 
16 | Cc1nnc(-c2ccc(N3CCN(S(=O)(=O)c4ccc(OC(C)C)cc4)CC3)cc2OCC(=O)O)s1 [II-75] | 580 | 580 |  |  |  | 
